Measurements reported in ChEMBL document CHEMBL5465560, “Selectivity Literature for EUbOPEN Chemogenomic Library” (2024).
One block for each compound: values may come before it.

Experiments:
[1] = target: Serine/threonine-protein kinase PLK1 (Homo sapiens, UniProt P53350); assay: Selectivity interaction (KinomeScan (DiscoverX)) EUB0000666a PLK1; settings: at 10 µM
[2] = target: Ribosomal protein S6 kinase beta-1 (Homo sapiens, UniProt P23443); assay: Selectivity interaction (KinomeScan (DiscoverX)) EUB0000666a RPS6KB1; settings: at 10 µM
[3] = target: T1, Dual specificity mitogen-activated protein kinase kinase 4 (Homo sapiens) (UniProt P45985); assay: Selectivity interaction (ActivX KiNativ screen (kinase selectivity in THP-1 cell lysates)) EUB0000639a MAP2K4; format: subcellular; settings: lysate
T1 sequence (whole entry): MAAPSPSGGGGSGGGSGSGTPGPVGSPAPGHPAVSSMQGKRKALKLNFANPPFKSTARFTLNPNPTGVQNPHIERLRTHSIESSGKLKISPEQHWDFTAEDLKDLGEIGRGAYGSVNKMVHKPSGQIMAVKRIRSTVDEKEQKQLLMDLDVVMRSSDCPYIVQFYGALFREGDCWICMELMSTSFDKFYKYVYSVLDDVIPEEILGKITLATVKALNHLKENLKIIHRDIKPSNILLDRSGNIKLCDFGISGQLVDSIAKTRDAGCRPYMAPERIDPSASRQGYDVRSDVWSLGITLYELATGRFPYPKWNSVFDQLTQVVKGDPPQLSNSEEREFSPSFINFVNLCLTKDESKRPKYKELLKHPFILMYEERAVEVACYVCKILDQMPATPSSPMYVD

[4] = target: RAC-gamma serine/threonine-protein kinase (Homo sapiens, UniProt Q9Y243); assay: Selectivity interaction (ProQinase) EUB0000171b AKT3
[5] = target: Serine/threonine-protein kinase MRCK beta (Homo sapiens) (UniProt Q9Y5S2); assay: Selectivity interaction (Ambit KINOMEscan and KiNATiv profiling in Jurkat cells) EUB0000090b CDC42BPB; format: cell-based; settings: at 1 µM
[6] = target: Hepatocyte growth factor receptor (Homo sapiens, UniProt P08581); assay: (§1) Selectivity interaction (Ambit KINOMEscan and KiNATiv profiling in Jurkat cells) EUB0000090b MET; format: cell-based; settings: at 1 µM
[7] = test system: Hepatocyte growth factor receptor (Homo sapiens), P08581 [Y1235D]; assay: as §1; format: cell-based; settings: at 1 µM
[8] = test system: Hepatocyte growth factor receptor (Homo sapiens), P08581 [M1250T]; assay: as §1; format: cell-based; settings: at 1 µM
[9] = target: T2, Cyclin-dependent kinase 11A (Homo sapiens) (UniProt Q9UQ88); assay: Selectivity interaction (Kinase panel (KiNativ target engagement assay in Jurkat cells)) EUB0001635a CDK11A; format: cell-based; settings: Selectivity number of off-targets 0.0, Selectivity number of targets 233.0, Source Knowledge https://www.sciencedirect.com/science/article/pii/S2451945619300674?via%3Dihub, at 1 µM
T2 sequence (whole entry): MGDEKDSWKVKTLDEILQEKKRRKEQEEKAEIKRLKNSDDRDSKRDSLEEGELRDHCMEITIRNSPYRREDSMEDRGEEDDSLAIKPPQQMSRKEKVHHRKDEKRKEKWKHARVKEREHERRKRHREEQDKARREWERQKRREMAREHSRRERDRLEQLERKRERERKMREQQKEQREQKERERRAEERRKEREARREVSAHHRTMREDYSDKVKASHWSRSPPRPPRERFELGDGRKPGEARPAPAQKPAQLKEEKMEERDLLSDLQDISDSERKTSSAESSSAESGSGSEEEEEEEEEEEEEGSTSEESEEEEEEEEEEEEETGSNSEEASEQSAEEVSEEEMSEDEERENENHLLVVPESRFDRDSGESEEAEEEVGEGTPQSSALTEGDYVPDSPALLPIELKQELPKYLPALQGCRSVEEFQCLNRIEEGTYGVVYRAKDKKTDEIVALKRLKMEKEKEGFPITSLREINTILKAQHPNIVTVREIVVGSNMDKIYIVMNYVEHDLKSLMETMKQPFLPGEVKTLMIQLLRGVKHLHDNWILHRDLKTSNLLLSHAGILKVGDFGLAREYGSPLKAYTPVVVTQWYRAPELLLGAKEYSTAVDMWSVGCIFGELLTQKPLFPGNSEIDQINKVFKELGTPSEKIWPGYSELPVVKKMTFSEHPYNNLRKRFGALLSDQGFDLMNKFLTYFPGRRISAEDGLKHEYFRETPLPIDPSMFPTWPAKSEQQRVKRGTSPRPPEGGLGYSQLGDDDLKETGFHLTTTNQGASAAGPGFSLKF

[10] = target: T3, NUAK family SNF1-like kinase 1 (Homo sapiens) (UniProt O60285); assay: Selectivity interaction (Kinase panel (Carna Biosciences)) EUB0001542aTs NUAK1; settings: at 1 µM
T3 sequence (whole entry): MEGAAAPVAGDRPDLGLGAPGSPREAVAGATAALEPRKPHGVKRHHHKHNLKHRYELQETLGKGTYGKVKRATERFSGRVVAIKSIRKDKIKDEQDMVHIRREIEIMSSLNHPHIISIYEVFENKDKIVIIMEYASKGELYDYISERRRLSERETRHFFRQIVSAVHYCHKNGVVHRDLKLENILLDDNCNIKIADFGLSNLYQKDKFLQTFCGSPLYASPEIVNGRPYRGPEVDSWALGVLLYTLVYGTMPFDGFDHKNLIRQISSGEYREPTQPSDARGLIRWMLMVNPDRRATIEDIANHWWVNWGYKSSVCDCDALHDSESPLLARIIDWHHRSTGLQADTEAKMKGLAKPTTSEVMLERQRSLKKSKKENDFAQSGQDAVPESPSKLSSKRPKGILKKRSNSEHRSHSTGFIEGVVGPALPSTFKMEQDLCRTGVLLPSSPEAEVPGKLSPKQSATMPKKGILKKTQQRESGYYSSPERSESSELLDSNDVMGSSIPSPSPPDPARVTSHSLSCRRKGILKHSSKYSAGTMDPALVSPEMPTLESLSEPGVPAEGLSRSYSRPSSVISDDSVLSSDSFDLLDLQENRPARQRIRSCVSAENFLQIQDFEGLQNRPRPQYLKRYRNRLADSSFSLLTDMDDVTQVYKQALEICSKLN

[11] = target: Tyrosine-protein kinase JAK2 (Homo sapiens, UniProt O60674); assay: Selectivity interaction (KinomeScan (DiscoverX)) EUB0000618a JAK2; settings: at 10 µM
[12] = target: Mitogen-activated protein kinase 14 (Homo sapiens, UniProt Q16539); assay: Selectivity interaction (ActivX KiNativ screen (ex vivo kinase selectivity in human PBMCs)) EUB0001619a MAPK14; format: cell-based; settings: PBMC, at 1 µM
Mitogen-activated protein kinase 14, sequence (Q16539 whole entry): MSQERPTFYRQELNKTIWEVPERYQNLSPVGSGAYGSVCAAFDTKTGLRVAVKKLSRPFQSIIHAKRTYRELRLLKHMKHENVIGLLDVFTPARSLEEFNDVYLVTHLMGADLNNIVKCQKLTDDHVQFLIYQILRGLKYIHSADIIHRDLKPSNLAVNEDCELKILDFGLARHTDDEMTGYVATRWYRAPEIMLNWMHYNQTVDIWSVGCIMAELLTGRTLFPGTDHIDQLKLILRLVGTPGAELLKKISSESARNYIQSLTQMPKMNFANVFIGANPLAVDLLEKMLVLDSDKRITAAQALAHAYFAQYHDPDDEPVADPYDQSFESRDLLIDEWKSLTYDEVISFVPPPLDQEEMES

RAC-gamma serine/threonine-protein kinase, sequence (Q9Y243 whole entry): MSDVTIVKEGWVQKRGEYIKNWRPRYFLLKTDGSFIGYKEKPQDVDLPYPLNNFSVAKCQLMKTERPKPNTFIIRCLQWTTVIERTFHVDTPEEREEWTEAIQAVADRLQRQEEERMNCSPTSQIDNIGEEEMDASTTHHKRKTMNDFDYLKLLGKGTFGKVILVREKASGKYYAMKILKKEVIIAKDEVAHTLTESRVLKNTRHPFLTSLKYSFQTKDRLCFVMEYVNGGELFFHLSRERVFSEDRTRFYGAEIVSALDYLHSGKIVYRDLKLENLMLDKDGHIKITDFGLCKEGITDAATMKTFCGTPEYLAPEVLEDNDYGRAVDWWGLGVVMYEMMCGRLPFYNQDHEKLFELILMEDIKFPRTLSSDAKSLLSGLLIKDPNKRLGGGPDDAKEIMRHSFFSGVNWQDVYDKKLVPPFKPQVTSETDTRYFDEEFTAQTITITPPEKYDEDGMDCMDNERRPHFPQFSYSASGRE
Ribosomal protein S6 kinase beta-1, sequence (P23443 whole entry, looked up): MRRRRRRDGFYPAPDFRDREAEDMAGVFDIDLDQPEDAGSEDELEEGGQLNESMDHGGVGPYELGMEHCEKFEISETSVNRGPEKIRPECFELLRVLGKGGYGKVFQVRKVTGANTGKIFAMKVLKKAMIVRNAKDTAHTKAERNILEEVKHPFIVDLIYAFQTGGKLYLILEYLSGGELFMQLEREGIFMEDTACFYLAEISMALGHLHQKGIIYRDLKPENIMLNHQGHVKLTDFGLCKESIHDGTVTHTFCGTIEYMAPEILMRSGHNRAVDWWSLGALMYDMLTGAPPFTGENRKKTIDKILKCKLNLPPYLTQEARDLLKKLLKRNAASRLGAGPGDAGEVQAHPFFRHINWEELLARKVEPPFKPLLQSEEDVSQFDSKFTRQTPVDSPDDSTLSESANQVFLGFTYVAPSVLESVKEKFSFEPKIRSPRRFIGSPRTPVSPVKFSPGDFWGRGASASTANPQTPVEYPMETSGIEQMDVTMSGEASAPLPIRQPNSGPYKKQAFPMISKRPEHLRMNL
Hepatocyte growth factor receptor, sequence (P08581 whole entry): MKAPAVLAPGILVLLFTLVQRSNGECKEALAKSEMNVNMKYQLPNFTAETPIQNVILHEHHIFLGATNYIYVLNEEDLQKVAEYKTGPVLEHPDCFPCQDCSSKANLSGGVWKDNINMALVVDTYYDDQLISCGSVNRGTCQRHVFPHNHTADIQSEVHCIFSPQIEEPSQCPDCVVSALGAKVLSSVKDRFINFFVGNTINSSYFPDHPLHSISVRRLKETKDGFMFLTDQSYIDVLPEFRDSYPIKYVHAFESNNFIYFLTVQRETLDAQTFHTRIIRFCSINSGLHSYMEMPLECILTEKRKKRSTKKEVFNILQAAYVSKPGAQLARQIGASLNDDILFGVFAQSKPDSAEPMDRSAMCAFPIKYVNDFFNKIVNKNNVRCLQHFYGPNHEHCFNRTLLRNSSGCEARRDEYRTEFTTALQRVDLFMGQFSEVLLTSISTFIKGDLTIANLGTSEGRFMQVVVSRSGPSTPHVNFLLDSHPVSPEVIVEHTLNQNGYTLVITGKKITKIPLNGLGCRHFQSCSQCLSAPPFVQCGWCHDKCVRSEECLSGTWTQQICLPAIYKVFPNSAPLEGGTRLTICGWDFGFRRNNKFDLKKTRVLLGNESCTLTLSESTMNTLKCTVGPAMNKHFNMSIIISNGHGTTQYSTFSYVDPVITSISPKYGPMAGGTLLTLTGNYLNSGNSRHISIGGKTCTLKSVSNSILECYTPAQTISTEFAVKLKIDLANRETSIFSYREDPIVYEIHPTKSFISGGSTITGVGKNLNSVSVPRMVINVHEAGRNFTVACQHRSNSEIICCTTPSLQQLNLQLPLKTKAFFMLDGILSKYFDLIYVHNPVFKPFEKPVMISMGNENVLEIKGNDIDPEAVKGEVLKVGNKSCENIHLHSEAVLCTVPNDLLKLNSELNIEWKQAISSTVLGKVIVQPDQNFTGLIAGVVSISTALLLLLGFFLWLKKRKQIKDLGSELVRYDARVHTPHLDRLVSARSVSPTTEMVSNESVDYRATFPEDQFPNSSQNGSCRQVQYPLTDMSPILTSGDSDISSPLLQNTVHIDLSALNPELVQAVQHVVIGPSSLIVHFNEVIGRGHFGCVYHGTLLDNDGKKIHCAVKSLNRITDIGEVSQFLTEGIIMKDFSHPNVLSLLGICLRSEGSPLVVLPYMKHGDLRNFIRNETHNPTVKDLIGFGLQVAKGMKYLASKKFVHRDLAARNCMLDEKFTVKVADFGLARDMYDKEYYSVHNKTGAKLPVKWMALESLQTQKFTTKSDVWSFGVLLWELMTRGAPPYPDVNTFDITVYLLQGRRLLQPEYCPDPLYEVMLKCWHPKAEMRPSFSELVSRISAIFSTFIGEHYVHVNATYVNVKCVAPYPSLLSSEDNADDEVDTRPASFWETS
Tyrosine-protein kinase JAK2, sequence (O60674 whole entry): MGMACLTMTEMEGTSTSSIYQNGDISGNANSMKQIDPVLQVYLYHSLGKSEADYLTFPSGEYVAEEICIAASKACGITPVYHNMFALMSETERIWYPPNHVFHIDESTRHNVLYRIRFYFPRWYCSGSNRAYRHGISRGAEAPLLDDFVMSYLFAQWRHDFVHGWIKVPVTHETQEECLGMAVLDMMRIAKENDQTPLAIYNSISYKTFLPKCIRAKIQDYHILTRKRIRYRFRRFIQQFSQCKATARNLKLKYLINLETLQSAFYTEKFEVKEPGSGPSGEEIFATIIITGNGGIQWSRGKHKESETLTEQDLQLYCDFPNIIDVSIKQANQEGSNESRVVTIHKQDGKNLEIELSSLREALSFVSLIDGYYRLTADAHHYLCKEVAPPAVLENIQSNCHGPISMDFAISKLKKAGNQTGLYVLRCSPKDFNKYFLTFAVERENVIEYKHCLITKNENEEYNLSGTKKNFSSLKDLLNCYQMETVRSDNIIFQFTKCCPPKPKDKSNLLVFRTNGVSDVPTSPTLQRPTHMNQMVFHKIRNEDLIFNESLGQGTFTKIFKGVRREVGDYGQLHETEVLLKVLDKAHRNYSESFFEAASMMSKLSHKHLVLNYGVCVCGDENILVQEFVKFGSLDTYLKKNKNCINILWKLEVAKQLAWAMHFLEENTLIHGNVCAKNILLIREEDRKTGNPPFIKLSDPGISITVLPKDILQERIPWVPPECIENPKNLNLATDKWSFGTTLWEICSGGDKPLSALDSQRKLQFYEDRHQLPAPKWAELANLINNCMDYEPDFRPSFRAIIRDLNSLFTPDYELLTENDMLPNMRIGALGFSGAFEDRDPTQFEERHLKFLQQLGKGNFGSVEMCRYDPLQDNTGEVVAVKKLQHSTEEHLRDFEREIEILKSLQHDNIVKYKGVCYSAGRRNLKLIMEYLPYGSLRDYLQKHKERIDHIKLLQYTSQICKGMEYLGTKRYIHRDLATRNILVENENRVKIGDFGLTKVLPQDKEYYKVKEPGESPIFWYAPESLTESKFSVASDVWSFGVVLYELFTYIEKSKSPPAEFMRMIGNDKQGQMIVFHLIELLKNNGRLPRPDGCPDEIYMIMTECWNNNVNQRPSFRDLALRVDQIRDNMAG
Serine/threonine-protein kinase PLK1, sequence (P53350 whole entry): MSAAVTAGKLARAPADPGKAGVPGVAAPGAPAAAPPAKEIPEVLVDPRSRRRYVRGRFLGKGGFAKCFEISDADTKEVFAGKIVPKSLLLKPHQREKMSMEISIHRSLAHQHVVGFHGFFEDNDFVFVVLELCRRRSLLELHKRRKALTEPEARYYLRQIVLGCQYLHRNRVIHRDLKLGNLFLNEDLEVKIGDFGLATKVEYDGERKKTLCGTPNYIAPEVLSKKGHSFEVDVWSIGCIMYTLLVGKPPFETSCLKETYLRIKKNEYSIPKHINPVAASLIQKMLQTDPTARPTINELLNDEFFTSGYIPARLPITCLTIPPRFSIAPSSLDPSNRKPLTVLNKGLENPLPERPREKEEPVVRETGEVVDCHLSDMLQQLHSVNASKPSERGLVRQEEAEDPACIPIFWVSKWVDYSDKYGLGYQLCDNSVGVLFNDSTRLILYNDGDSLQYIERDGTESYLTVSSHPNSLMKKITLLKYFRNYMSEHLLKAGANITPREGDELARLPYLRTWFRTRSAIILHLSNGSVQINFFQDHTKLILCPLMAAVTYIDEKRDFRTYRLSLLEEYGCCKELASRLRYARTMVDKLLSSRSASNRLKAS

SMILES: O=C(NOC[C@H](O)CO)c1ccc(F)c(F)c1Nc1ccc(I)cc1F
% of control [1]: 72% | % of control [2]: 100%

% of inhibition ([3]; at 0.01 µM): -9.4% | % of inhibition ([3]; at 0.04 µM): -17.8% | % of inhibition ([3]; at 0.2 µM): 0.7% | % of inhibition ([3]; at 1 µM): 17.6% | % of inhibition ([3]; at 5 µM): 56.2%
SMILES: CC[C@@H]1[C@H](F)C(=O)N[C@@H]1COc1nccc2cc(C(N)=O)c(OC)cc12 [ZIMLOVISERTIB]

% of control ([4]; at 1 µM): 95% | % of control ([4]; at 5 µM): 90%
SMILES: C=CC(=O)Nc1cccc(C(=O)Nc2ccc(Nc3cc(-c4[nH]c(SC)nc4C)ccn3)cc2)c1

SMILES: CN(C)C/C=C/C(=O)Nc1ccc(C(=O)N2CCCC(Nc3ncc(Cl)c(-c4c[nH]c5ccccc45)n3)C2)cc1 (configuration not stated)
% of control [5]: 96% | % of control [6]: 84% | % of control [7]: 69% | % of control [8]: 69%

SMILES: C=CC(=O)Nc1ccc(C(=O)Nc2[nH]nc3c2CN(C(=O)N[C@H](CN(C)C)c2ccccc2)C3(C)C)cc1
% of engagement [9]: -15.7%

% of inhibition [10]: 60%
SMILES: Cn1cc(Nc2nccc(N3CC4CCC(C3)N4C(=O)[C@@H]3CC3(F)F)n2)cn1

SMILES: O[C@H]1CC[C@H](Nc2ncc3nc(Nc4c(F)cc(F)cc4F)n([C@H]4CCOC4)c3n2)CC1
% of control [11]: 97%

SMILES: N#Cc1cccc(-c2c[nH]c3ncnc(N4CCOCC4)c23)c1
% of inhibition [12]: -2%
